Source: ChEMBL document CHEMBL5724696, “Autophagy assay results for EUbOPEN Chemogenomics Library” (2024)
Values joined by “and” are separate entries in the source; they are usually repeats but may differ in a detail not shown here. Equal entries are not always repeated.

What was measured:
Assay type in all cases: functional, Homo sapiens
[1] = system: TERT-RPE1; assay: (§1) Here: values are normalized to the negative (DMSO; defined as 0% autophagy induction) and positive (250nM Torin1; mTOR inhibitor; defined as maximal inducer of autophagy = 100%) control compounds and represented as % of autophagy induction. […] The impact of autophagy induction on cells is complex and depends on the affected target. As such, the magnitude of a phenotype may not be equally mirrored in the %-value of autophagy induction and vice versa. The dynamics of the induction may indicate the mode of activation: e.g. activation via phosphorylation or a signaling cascade may occur fast, while activation via transcription factors may take considerably longer. […] Of note, treatment concentrations may be sub-optimal for specific compounds, leading to false negative annotations.; conditions: Culturing Media DMEM/F12 (1:1), 1 % Penicillin/Streptomycin, 10% Fetal bovin serum Add-On: No, Screening Media Control DMEM/F12 (1:1), Screening Media Samples DMEM/F12 (1:1)
[2] = system: U2OS; assay: as §1; conditions: Culturing Media DMEM, 1 % Penicillin/Streptomycin, 10% Fetal bovin serum Add-On: No, Screening Media Control DMEM, Screening Media Samples DMEM
[3] = system: U2OS; assay: as §1; conditions: Culturing Media DMEM, 1 % Penicillin/Streptomycin, 10% Fetal bovin serum Add-On: No, Screening Media Control DMEM, Screening Media Samples DMEM; remark: listed apart in the source
[4] = Compound Concentration 0.5 uM, Timepoint 12 hours
[5] = Compound Concentration 0.5 uM, Timepoint 24 hours
[6] = Compound Concentration 0.5 uM, Timepoint 36 hours
[7] = Compound Concentration 0.5 uM, Timepoint 60 hours
[8] = Compound Concentration 2 uM, Timepoint 12 hours
[9] = Compound Concentration 2 uM, Timepoint 24 hours
[10] = Compound Concentration 2 uM, Timepoint 36 hours
[11] = Compound Concentration 2 uM, Timepoint 60 hours
[12] = Compound Concentration 10 uM, Timepoint 12 hours
[13] = Compound Concentration 10 uM, Timepoint 24 hours
[14] = Compound Concentration 10 uM, Timepoint 36 hours
[15] = Compound Concentration 10 uM, Timepoint 60 hours

COc1ccccc1CN[C@H]1C2CCN(CC2)[C@H]1C(c1ccccc1)c1ccccc1 [CP-96345]
autophagy induction [1, 4]: -7.147%
autophagy induction [1, 5]: -11.4989%
autophagy induction [1, 6]: -14.454%
autophagy induction [1, 7]: -21.453%
autophagy induction [1, 8]: -6.616%
autophagy induction [1, 9]: -10.9647%
autophagy induction [1, 10]: -14.8934%
autophagy induction [1, 11]: -18.8514%
autophagy induction [1, 12]: 2.262%
autophagy induction [1, 13]: 3.387%
autophagy induction [1, 14]: 7.76%
autophagy induction [1, 15]: 2.279%
autophagy induction [2, 4]: 8.36%
autophagy induction [2, 5]: 2.83%
autophagy induction [2, 6]: 0.2431%
autophagy induction [2, 7]: 0.5109%
autophagy induction [2, 8]: -21.7864%
autophagy induction [2, 9]: -9.531%
autophagy induction [2, 10]: -7.223%
autophagy induction [2, 11]: -5.938%
autophagy induction [2, 12]: -2.456%
autophagy induction [2, 13]: -0.4585%
autophagy induction [2, 14]: -0.2201%
autophagy induction [2, 15]: -2.05%
autophagy induction [3, 4]: -3.495%
autophagy induction [3, 5]: -5.808%
autophagy induction [3, 6]: -2.326%
autophagy induction [3, 7]: -4.4745%
autophagy induction [3, 8]: 5.091%
autophagy induction [3, 9]: 1.613%
autophagy induction [3, 10]: -0.5186%
autophagy induction [3, 11]: 0.7913%
autophagy induction [3, 12]: 26.1721%
autophagy induction [3, 13]: 19.1804%
autophagy induction [3, 14]: 19.6555%
autophagy induction [3, 15]: 18.5295%

CC1=C2C[C@H]3[C@@H](CC=C4C[C@@H](O)CC[C@@]43C)[C@@H]2CC[C@]12O[C@@H]1C[C@H](C)CN[C@H]1[C@H]2C [CYCLOPAMINE]
autophagy induction ([1]; Compound Concentration 0.5 uM, Timepoint 12 hours, 12 h, 0.5 µM): -1.95% and 0.112%
autophagy induction ([1]; Compound Concentration 0.5 uM, Timepoint 24 hours, 24 h, 0.5 µM): -5.579% and 2.177%
autophagy induction ([1]; Compound Concentration 0.5 uM, Timepoint 36 hours, 36 h, 0.5 µM): -7.952% and 1.185%
autophagy induction ([1]; Compound Concentration 0.5 uM, Timepoint 60 hours, 60 h, 0.5 µM): -10.1078% and 0.5911%
autophagy induction ([1]; Compound Concentration 2 uM, Timepoint 12 hours, 12 h, 2 µM): -0.5068% and 11.5959%
autophagy induction ([1]; Compound Concentration 2 uM, Timepoint 24 hours, 24 h, 2 µM): -0.6761% and 8.252%
autophagy induction ([1]; Compound Concentration 2 uM, Timepoint 36 hours, 36 h, 2 µM): -1.445% and 8.279%
autophagy induction ([1]; Compound Concentration 2 uM, Timepoint 60 hours, 60 h, 2 µM): -2.949% and 8.955%
autophagy induction ([1]; Compound Concentration 10 uM, Timepoint 12 hours, 12 h, 10 µM): 18.7284% and 8.103%
autophagy induction ([1]; Compound Concentration 10 uM, Timepoint 24 hours, 24 h, 10 µM): 21.8058% and 8.836%
autophagy induction ([1]; Compound Concentration 10 uM, Timepoint 36 hours, 36 h, 10 µM): 27.6829% and 10.6231%
autophagy induction ([1]; Compound Concentration 10 uM, Timepoint 60 hours, 60 h, 10 µM): 29.1115% and 13.2783%
autophagy induction [2, 4]: -10.7714%
autophagy induction [2, 5]: -6.065%
autophagy induction [2, 6]: -46.3072%
autophagy induction [2, 7]: -1.6767%
autophagy induction [2, 8]: -23.8167%
autophagy induction [2, 9]: -9.227%
autophagy induction [2, 10]: -62.0777%
autophagy induction [2, 11]: -2.064%
autophagy induction [2, 12]: -31.4833%
autophagy induction [2, 13]: -9.078%
autophagy induction [2, 14]: -61.7295%
autophagy induction [2, 15]: -4.044%
autophagy induction [3, 4]: -5.379%
autophagy induction [3, 5]: -12.5809%
autophagy induction [3, 6]: -11.7869%
autophagy induction [3, 7]: -7.179%
autophagy induction [3, 8]: -12.942%
autophagy induction [3, 9]: -16.2845%
autophagy induction [3, 10]: -11.3886%
autophagy induction [3, 11]: -12.7281%
autophagy induction [3, 12]: -9.168%
autophagy induction [3, 13]: -9.072%
autophagy induction [3, 14]: -3.104%
autophagy induction [3, 15]: 2.518%
